Values quoted from earlier work in US20240180165A1, “ACTIVATION OF BIONEMATICIDE AND PLANT GROWTH PROMOTING FUNCTIONS IN A BIOTECHNOLOGICAL SOLUTION COMPRISING TWO OR MORE BACILLUS SPECIES AND ALLICIN; INDUSTRIAL PROCESS AND APPLICATION THEREOF” (TOTAL BIOTECNOLOGIA INDÚSTRIA E COMÉRICO S/A, priority 2021, published 2024).

Test system: Gram-negative and Gram-positive bacteria, including the Bacillus genus
Details: even at low concentrations (UM)

**Q.** Which antimicrobial activity does the source give for `C=CCS[S+]([O-])CC=C` (stereo not shown) [allicin] here?
**A.** Its antimicrobial activity is “broad antimicrobial activity”.
